From ChEMBL document CHEMBL5465560, “Selectivity Literature for EUbOPEN Chemogenomic Library” (2024)

Columns and labels:
[1] = biological target: Protein polybromo-1 (Homo sapiens) (UniProt Q86U86); test: Selectivity interaction (Human bromodomain panel (DSF assay)) EUB0000233b PBRM1
[2] = biological target: T1, TGF-beta receptor type-1 (Homo sapiens) (UniProt P36897); test: Selectivity interaction (KinomeScan (DiscoverX)) EUB0000045b TGFBR1
T1 sequence (whole entry): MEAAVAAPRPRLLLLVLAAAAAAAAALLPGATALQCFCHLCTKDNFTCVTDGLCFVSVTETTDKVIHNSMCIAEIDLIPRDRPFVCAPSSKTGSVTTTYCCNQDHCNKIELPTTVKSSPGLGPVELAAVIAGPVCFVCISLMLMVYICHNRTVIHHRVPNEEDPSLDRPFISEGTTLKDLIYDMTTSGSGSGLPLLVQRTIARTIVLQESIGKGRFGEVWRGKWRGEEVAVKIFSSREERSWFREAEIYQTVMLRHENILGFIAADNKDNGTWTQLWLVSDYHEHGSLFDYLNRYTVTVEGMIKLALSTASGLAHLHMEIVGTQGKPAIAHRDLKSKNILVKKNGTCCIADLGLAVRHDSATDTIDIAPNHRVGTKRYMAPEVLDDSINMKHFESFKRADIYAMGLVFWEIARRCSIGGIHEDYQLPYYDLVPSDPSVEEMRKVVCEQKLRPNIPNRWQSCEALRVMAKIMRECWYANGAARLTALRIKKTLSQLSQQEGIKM

[3] = biological target: Hepatocyte growth factor receptor (Homo sapiens, UniProt P08581); test: (§1) Selectivity interaction (KinomeScan (DiscoverX)) EUB0001079a MET; details: at 1 µM
[4] = test system: Hepatocyte growth factor receptor (Homo sapiens), P08581 [M1250T]; test: as §1; details: at 1 µM
[5] = test system: Hepatocyte growth factor receptor (Homo sapiens), P08581 [Y1235D]; test: as §1; details: at 1 µM
[6] = biological target: Dual specificity protein kinase CLK2 (Homo sapiens, UniProt P49760); test: Selectivity interaction (KinomeScan (DiscoverX)) EUB0001550a CLK2; details: at 1 µM
[7] = biological target: T2, Serine/threonine-protein kinase Nek1 (Homo sapiens) (UniProt Q96PY6); test: Selectivity interaction (KinomeScan (DiscoverX)) EUB0001619a NEK1; details: at 1 µM
T2 sequence (whole entry): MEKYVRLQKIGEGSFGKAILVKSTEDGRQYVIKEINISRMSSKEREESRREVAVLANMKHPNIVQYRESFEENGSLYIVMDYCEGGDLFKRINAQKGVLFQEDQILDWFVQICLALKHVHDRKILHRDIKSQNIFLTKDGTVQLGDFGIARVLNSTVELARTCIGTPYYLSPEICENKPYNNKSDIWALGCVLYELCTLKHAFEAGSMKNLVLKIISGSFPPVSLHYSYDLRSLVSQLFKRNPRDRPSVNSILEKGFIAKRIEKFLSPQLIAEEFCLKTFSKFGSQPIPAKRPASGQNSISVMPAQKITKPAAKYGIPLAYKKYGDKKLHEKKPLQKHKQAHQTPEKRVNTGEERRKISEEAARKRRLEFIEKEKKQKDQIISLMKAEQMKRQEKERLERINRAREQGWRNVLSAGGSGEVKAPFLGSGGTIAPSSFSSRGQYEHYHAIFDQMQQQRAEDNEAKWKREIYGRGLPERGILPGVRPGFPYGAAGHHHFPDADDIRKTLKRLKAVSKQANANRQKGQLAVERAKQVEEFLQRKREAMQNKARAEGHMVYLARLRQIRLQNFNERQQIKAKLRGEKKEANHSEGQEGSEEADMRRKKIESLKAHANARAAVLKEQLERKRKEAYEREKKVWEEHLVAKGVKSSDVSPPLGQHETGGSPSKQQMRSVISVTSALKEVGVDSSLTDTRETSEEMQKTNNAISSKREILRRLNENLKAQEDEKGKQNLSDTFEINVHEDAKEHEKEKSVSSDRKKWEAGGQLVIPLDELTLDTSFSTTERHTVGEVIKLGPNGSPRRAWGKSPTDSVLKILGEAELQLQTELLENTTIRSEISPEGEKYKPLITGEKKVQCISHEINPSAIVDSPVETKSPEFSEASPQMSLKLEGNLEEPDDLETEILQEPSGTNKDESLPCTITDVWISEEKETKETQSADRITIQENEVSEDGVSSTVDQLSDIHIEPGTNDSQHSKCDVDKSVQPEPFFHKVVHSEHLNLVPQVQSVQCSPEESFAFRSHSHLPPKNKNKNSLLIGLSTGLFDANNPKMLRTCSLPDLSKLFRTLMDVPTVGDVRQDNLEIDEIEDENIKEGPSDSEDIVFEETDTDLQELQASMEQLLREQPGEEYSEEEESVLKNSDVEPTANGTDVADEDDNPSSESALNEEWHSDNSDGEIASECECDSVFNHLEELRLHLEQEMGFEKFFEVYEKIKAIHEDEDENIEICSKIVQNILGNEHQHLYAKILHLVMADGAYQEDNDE

[8] = biological target: Dual specificity protein kinase CLK4 (Homo sapiens, UniProt Q9HAZ1); test: Selectivity interaction (KinomeScan (DiscoverX)) EUB0000618a CLK4; details: at 10 µM
[9] = biological target: T3, Serine/threonine-protein kinase tousled-like 1 (Homo sapiens) (UniProt Q9UKI8); test: Selectivity interaction (ActivX KiNativ screen (kinase selectivity in THP-1 cell lysates)) EUB0000639a TLK1; assay type: subcellular; details: lysate, at 1 µM
T3 sequence (whole entry): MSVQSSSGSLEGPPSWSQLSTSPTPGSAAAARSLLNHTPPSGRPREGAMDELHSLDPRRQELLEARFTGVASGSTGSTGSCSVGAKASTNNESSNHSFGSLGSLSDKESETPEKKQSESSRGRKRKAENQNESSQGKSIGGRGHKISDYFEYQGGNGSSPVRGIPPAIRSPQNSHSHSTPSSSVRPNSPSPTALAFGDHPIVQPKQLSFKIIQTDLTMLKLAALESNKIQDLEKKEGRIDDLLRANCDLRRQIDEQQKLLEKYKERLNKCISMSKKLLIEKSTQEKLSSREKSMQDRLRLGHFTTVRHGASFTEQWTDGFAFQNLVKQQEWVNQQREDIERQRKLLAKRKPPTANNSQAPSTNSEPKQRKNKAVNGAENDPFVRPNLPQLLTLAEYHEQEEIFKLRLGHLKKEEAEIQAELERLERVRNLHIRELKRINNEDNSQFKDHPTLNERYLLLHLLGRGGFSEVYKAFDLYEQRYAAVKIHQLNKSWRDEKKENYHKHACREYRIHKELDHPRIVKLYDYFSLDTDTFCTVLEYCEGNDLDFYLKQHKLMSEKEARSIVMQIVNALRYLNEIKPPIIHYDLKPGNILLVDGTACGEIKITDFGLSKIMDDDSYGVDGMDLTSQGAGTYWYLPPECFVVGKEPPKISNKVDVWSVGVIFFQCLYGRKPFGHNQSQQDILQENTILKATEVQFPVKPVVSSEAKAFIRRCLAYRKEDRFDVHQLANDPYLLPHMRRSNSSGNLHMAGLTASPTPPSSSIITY

[10] = biological target: Tyrosine-protein kinase BTK (Homo sapiens, UniProt Q06187); test: Selectivity interaction (KinomeScan (DiscoverX)) EUB0000655a BTK; details: at 10 µM
Tyrosine-protein kinase BTK, sequence (Q06187 whole entry): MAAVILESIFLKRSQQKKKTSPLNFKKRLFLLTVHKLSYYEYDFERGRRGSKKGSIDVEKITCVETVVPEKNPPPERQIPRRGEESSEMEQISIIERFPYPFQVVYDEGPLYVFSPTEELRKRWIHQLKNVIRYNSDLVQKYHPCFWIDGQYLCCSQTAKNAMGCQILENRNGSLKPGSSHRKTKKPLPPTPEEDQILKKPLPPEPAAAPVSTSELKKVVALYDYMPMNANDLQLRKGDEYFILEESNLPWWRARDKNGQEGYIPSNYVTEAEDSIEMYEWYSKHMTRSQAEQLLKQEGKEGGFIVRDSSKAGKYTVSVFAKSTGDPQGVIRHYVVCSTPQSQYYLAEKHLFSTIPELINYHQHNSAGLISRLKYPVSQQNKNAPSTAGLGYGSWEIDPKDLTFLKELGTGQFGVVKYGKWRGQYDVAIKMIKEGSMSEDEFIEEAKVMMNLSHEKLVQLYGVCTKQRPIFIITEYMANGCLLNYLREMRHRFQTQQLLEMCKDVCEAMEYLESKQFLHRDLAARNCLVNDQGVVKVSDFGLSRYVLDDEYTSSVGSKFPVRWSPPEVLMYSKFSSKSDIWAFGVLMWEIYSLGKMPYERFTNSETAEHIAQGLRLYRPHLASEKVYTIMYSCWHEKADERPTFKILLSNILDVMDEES

Dual specificity protein kinase CLK2, sequence (P49760 whole entry, looked up): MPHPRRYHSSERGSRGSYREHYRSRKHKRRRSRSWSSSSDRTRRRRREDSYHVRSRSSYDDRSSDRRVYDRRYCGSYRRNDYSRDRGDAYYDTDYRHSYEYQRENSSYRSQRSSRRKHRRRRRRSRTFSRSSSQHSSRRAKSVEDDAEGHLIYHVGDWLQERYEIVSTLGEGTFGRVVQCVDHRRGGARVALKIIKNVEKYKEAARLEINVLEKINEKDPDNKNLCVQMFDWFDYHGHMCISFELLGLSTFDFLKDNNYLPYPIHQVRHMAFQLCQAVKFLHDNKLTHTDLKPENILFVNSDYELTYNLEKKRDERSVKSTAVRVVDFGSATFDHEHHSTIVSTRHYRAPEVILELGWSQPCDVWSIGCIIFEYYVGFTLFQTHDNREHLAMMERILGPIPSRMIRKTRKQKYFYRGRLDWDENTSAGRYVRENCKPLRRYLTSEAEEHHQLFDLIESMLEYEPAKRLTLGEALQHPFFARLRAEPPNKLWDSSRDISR
Protein polybromo-1 (Homo sapiens), sequence (Q86U86 whole entry): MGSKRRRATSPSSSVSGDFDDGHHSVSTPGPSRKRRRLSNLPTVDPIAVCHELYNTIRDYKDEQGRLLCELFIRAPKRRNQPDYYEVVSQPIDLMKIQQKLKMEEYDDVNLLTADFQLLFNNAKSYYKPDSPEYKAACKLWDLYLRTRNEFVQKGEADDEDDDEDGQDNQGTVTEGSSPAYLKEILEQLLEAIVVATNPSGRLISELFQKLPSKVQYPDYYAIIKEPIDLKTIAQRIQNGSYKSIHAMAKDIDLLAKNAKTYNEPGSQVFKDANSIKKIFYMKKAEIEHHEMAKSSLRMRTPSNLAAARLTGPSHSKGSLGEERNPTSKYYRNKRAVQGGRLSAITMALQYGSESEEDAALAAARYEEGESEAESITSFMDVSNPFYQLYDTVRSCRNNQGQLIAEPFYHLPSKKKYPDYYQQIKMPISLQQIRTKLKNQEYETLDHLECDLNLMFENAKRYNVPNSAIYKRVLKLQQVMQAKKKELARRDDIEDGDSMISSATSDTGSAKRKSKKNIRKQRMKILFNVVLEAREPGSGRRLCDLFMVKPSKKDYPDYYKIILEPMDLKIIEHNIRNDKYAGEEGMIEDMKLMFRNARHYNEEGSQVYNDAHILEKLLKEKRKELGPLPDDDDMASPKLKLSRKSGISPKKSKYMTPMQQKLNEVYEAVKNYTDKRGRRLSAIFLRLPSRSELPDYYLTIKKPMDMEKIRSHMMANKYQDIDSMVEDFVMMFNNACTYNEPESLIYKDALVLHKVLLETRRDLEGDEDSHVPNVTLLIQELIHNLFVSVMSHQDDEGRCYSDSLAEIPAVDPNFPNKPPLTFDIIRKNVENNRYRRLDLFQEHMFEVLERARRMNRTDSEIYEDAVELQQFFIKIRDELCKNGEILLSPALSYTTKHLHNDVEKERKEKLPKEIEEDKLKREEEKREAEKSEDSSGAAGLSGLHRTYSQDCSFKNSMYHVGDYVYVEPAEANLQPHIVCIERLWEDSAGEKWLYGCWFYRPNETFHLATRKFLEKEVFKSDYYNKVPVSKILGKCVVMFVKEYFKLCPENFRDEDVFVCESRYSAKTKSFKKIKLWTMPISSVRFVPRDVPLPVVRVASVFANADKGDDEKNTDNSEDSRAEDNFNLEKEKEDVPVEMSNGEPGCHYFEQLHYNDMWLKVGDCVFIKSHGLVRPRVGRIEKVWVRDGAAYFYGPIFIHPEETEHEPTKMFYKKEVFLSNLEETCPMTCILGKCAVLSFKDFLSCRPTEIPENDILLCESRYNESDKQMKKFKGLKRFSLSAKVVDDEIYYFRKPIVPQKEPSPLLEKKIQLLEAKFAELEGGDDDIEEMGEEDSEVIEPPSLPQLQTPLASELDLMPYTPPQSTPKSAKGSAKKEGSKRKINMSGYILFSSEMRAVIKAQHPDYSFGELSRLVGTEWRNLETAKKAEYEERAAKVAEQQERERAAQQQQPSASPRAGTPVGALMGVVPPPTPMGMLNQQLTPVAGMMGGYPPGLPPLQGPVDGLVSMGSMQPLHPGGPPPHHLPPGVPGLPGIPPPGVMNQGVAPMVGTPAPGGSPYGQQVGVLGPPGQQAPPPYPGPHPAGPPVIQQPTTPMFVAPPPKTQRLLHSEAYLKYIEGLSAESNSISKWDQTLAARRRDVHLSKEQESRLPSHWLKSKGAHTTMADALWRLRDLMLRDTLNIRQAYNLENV
Hepatocyte growth factor receptor (Homo sapiens), P08581 [Y1235D], sequence (P08581 whole entry Y1235D): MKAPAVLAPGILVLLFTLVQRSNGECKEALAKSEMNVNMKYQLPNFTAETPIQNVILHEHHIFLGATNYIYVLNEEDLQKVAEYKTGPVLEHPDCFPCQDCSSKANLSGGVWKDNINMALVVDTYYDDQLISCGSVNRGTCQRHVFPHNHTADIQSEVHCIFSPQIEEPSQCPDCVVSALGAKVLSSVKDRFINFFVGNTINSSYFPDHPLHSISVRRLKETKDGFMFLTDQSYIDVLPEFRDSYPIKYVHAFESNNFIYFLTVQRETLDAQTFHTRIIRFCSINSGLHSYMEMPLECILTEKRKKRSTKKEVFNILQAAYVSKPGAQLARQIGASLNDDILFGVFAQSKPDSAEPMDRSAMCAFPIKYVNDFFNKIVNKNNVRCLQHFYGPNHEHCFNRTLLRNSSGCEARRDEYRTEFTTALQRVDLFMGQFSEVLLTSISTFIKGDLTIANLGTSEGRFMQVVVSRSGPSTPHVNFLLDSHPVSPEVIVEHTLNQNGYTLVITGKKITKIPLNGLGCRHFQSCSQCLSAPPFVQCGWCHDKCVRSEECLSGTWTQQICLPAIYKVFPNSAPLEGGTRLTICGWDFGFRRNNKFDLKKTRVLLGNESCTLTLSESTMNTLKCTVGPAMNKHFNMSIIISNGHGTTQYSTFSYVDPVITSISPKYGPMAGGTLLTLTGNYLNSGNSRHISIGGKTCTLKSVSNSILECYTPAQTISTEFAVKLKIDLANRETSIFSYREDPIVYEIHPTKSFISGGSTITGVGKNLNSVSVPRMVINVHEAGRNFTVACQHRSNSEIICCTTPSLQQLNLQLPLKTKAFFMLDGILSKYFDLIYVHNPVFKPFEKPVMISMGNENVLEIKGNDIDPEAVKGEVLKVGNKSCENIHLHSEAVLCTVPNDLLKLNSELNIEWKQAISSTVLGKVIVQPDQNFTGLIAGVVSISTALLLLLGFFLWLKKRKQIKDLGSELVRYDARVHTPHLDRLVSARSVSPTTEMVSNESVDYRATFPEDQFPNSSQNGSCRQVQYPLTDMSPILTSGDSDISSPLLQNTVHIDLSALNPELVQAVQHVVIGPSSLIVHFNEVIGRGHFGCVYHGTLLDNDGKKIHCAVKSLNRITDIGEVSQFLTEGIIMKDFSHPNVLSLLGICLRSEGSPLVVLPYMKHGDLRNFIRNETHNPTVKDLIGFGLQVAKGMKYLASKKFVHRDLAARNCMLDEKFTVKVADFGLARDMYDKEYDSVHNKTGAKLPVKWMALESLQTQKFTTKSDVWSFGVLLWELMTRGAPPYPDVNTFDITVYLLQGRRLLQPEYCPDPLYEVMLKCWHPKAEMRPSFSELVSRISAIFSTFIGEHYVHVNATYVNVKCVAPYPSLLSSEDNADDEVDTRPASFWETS
Dual specificity protein kinase CLK4, sequence (Q9HAZ1 whole entry, looked up): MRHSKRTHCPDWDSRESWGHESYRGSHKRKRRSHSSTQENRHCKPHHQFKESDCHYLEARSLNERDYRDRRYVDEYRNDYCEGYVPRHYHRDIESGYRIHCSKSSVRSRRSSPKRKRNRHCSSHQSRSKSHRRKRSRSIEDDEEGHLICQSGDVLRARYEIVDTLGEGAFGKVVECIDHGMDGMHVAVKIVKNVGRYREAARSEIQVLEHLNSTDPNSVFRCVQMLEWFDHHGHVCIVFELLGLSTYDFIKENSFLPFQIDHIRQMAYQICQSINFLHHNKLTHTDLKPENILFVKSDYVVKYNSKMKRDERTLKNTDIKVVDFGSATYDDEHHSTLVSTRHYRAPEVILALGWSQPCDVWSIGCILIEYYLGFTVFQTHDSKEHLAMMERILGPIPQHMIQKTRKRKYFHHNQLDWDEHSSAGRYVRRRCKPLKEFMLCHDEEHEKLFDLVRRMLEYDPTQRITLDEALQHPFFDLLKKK

SMILES: CN(C)CCCOc1ccc(-c2cc(NCCCn3cccn3)nc(S(C)(=O)=O)n2)cc1
- dTM [1]: < 2 K

SMILES: C=CC(=O)Nc1cc(-n2c(=O)ccc3cnc4ccc(-c5ccc(NS(C)(=O)=O)cc5)cc4c32)ccc1C
- % of control ([2]; at 1 µM): 97%
- % of control ([2]; at 10 µM): 100%

SMILES: Nc1cnc(N2CCc3cc(S(=O)(=O)Nc4c(F)cc(Cl)cc4F)cc(N4CCCC4=O)c32)nc1 [TP-020n]
- % of control [3]: 69%
- % of control [4]: 100%
- % of control [5]: 69%

SMILES: CN(C)CC#Cc1ccc2[nH]c3c(c2c1)-c1nc(N)ncc1CCC3
- % of control [6]: 20%

SMILES: N#Cc1cccc(-c2c[nH]c3ncnc(N4CCOCC4)c23)c1
- % of control [7]: 100%

SMILES: O[C@H]1CC[C@H](Nc2ncc3nc(Nc4c(F)cc(F)cc4F)n([C@H]4CCOC4)c3n2)CC1
- % of control [8]: 100%

SMILES: CC[C@@H]1[C@H](F)C(=O)N[C@@H]1COc1nccc2cc(C(N)=O)c(OC)cc12 [ZIMLOVISERTIB]
- % of inhibition [9]: 34.3%

SMILES: CN(C)CCOc1ccc(-c2nc(-c3ccncc3)c(-c3ccc4c(c3)CC/C4=N\O)[nH]2)cc1
- % of control [10]: 92%
